Test results: PubChem BioAssay (NCI)
Several values for one entry are separate records, joined by “and”; a condition that tells them apart may be missing. Equal entries are not always repeated.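 Dose response: 5 concentrations. Exposure: 48 h. Format: 96-well plates. Endpoint: linear interpolation; highest concentration if not reached. GI50: concentration for 50% inhibition of growth. TGI: total growth inhibition.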

Legend:
Assay in all cases: NCI anticancer screen, dose series, 48 h
[1] = tested on: HCC-2998 colon
[2] = tested on: HCT-116 colon
[3] = tested on: NCI-H23 lung
[4] = tested on: SF-268 CNS
[5] = tested on: OVCAR-8 ovarian
[6] = tested on: MDA-MB-231 breast
[7] = tested on: BT-549 breast
[8] = tested on: A549 NSCLC
[9] = tested on: SK-MEL-2 melanoma
[10] = tested on: MDA-MB-435

## CCCCCCCC(=O)SCC/C=C/[C@@H]1CC(=O)NCc2nc(cs2)C2=N[C@@](C)(CS2)C(=O)N[C@@H](C(C)C)C(=O)N1
[1]
  GI50: 0.0224 µM
  TGI: 0.408 µM
[2]
  GI50: < 0.01 µM
  TGI: 0.035 µM
[3]
  GI50: 0.0399 µM
  TGI: 20.8 µM
[4]
  GI50: 0.0769 µM
  TGI: > 50.5 µM
[5]
  GI50: 0.0234 µM
  TGI: 16.7 µM
[6]
  GI50: 0.0286 µM
  TGI: 31.5 µM
[7]
  GI50: 0.0604 µM
  TGI: > 66.8 µM
[8]
  GI50: 0.0273 µM
  TGI: 1.53 µM
[9]
  GI50: 0.0304 µM
  TGI: 0.597 µM
[10]
  GI50: < 0.01 µM
  TGI: 1.9 µM

## COc1ccc(/C(C#N)=C/c2cc(OC)c(OC)c(OC)c2)cc1
[1]
  GI50: 23.1 µM
  TGI: > 100 µM
[2]
  GI50: 22.9 µM
  TGI: > 100 µM
[3]
  GI50: 20.1 µM
  TGI: 88.4 µM
[4]
  GI50: 39.6 µM
  TGI: > 100 µM
[5]
  GI50: 30.7 µM
  TGI: > 100 µM
[6]
  GI50: 14.1 µM
  TGI: > 100 µM
[7]
  GI50: 21.1 µM
  TGI: 70 µM
[8]
  GI50: 23.6 µM
  TGI: > 100 µM
[9]
  GI50: 21.9 µM
  TGI: 82.2 µM
[10]
  GI50: 2.19 µM
  TGI: 12.5 µM

## Cn1nc(C(F)(F)F)c(-c2cc(C(F)(F)F)cc(C(F)(F)F)c2)c1-c1ccc(OCc2ccc(Cl)cc2)cc1O
[1]
  GI50: 2.77 µM
  TGI: 12.4 µM
[2]
  GI50: 1.62 µM
  TGI: 3.81 µM
[3]
  GI50: 1.64 µM
  TGI: 6.93 µM
[4]
  GI50: 2.65 µM
  TGI: 13 µM
[5]
  GI50: 2.92 µM
  TGI: 12.1 µM
[6]
  GI50: 2.15 µM
  TGI: 5.69 µM
[7]
  GI50: 1.67 µM
  TGI: 3.33 µM
[8]
  GI50: 3.18 µM
  TGI: 11.7 µM
[9]
  GI50: 1.73 µM
  TGI: 4.09 µM
[10]
  GI50: 2.54 µM
  TGI: 8.03 µM

## C[C@H]1CNC(=O)c2cnn3ccc(nc23)N[C@H](C)c2cc(F)ccc2O1
[1]
  GI50: 3.26 µM
  TGI: 70.3 µM
[2]
  GI50: 0.559 µM
  TGI: 16.9 µM
[3]
  GI50: 1.93 µM
  TGI: 53.1 µM
[4]
  GI50: 0.809 µM
  TGI: 3.79 µM
[5]
  GI50: 2.54 µM
  TGI: > 55.1 µM
[6]
  GI50: 0.514 µM
  TGI: 13 µM
[7]
  GI50: 1.1 µM
  TGI: 2.52 µM
[8]
  GI50: 0.937 µM
  TGI: 16.4 µM
[9]
  GI50: 3.54 µM
  TGI: 24 µM
[10]
  GI50: 8.84 µM
  TGI: > 91.2 µM

## NC(N)=NC(N)=NCCCc1ccco1
[1]
  GI50: > 500 µM
  TGI: > 500 µM
[2]
  GI50: 90.2 µM
  TGI: 335 µM
[3]
  GI50: 463 µM
  TGI: > 500 µM
[4]
  GI50: 61.5 µM
  TGI: 156 µM
[5]
  GI50: 31.8 µM
  TGI: 190 µM
[6]
  GI50: 68.8 µM
  TGI: 198 µM
[7]
  GI50: 39.6 µM
  TGI: 152 µM
[8]
  GI50: > 500 µM
  TGI: > 500 µM
[9]
  GI50: 47.5 µM
  TGI: 115 µM
[10]
  GI50: 21.5 µM
  TGI: 82.4 µM

## COC(=O)Nc1nc2ccc(C(=O)c3ccccc3)cc2[nH]1
[1]
  GI50: 2.31 µM and 2.13 µM
  TGI: > 100 µM
[2]
  GI50: 0.47 µM and 0.353 µM
  TGI: 50.8 µM and > 36.2 µM
[3]
  GI50: 0.747 µM and 1.13 µM
  TGI: > 100 µM
[4]
  GI50: 1.76 µM and 0.535 µM
  TGI: > 100 µM
[5]
  GI50: 0.757 µM and 0.486 µM
  TGI: > 100 µM
[6]
  GI50: 1.05 µM and 1.25 µM
  TGI: > 100 µM
[7]
  GI50: 1.2 µM and 3.27 µM
  TGI: > 100 µM and 52.1 µM
[8]
  GI50: 0.605 µM and 0.534 µM
  TGI: > 100 µM
[9]
  GI50: 0.473 µM and 0.583 µM
  TGI: 22.8 µM and > 100 µM
[10]
  GI50: 0.178 µM and 0.0343 µM
  TGI: 0.485 µM and 0.211 µM
